Source: patent US20250195530A1, “POLQ INHIBITORS” (ASTRAZENECA AB, priority 2022, published 2025)
Read-outs that look alike come from different tables or passages of the source.

Test system: DLD-1 BRCA2−/− cells
Experiment: Homologous recombination synthetic lethal inhibition of proliferation, DLD-1 BRCA2-/- (Cell Titre Glo 3D)
Assay type: cell-based
Settings: Homo sapiens
In short: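 Isogenic DLD-1 pair; BRCA2−/− seeded 3,000 cells/mL and read day 12, wt seeded 1,500 cells/mL and read day 7. 10-pt titration (top 10 μM, 3-fold), re-fed with compound day 6, 37 °C/5% CO2. CTG 3D endpoint; IC50 at 50% signal loss.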

[1] = DLD-1, DLD-1 BRCA2 −/− cells, mean, read-out: POLQ PD Prolif Lumin BRCA2 −/− mean pIC50 (converted)
[2] = DLD-1, first proliferation column (c5), taken as DLD-1 BRCA2-/-, read-out: POLQ PD Prolif Lumin (converted)
[3] = DLD-1, DLD-1 BRCA2-/- proliferation, column head only partly shown, read-out: POLQ PD Prolif Lumin (converted)
[4] = DLD-1, DLD-1 BRCA2 −/−, mean, read-out: POLQ PD Prolif Lumin BRCA2 −/− mean pIC50 (converted)
[5] = DLD-1, first proliferation column, DLD-1 BRCA2-/-, read-out: POLQ PD Prolif Lumin (converted)
[6] = DLD-1, first proliferation column (c5), DLD-1 BRCA2-/-, read-out: POLQ PD Prolif Lumin (converted)
[7] = DLD-1, proliferation, luminescence, taken as DLD-1 BRCA2-/-, read-out: POLQ PD Prolif Lumin (converted)

Structure (SMILES): Cc1cnn(C)c1Cn1c(-c2ccc(CC(N)=O)cc2Cl)nc2c(OC3(C)CC3)ncnc21 [Example T31, 2-(3-chloro-4-(9-((1,4-dimethyl-1H-pyrazol-5-yl)methyl)-6-(1-methylcyclopropoxy)-9H-purin-8-yl)phenyl)acetamide]
- IC50 [1]: > 10000 nM

Structure (SMILES): CC1(Oc2ncnc3c2nc(-c2ccc(CC(N)=O)cc2Cl)n3Cc2ccc(C#N)cc2)CC1 [Example T83, 2-(3-chloro-4-(9-(4-cyanobenzyl)-6-(1-methylcyclopropoxy)-9H-purin-8-yl)phenyl)acetamide]
- IC50 [1]: 7940 nM

Structure (SMILES): CC1(Oc2ncnc3c2nc(-c2ccc(CC(N)=O)cc2Cl)n3Cc2ccc(C(F)(F)F)nc2)CC1 [Example T38, 2-(3-chloro-4-(6-(1-methylcyclopropoxy)-9-((6-(trifluoromethyl)pyridin-3-yl)methyl)-9H-purin-8-yl)phenyl)acetamide]
- IC50 [1]: 6310 nM

Structure (SMILES): CC1(Oc2ncnc3c2nc(-c2cccc(OCCCC(=O)NS(C)(=O)=O)c2Cl)n3Cc2cccc(Cl)c2)CC1 [Example T325, 4-(2-chloro-3-(9-(3-chlorobenzyl)-6-(1-methylcyclopropoxy)-9H-purin-8-yl)phenoxy)-N-(methylsulfonyl)butanamide]
- IC50 [2]: 316 nM

Structure (SMILES): Cc1ccnc(Cn2c(-c3ccc(C(=O)NCCCO)cc3Cl)nc3c(OC4(C)CC4)ncnc32)c1 [Example T217, 3-chloro-N-(3-hydroxypropyl)-4-(6-(1-methylcyclopropoxy)-9-((4-methylpyridin-2-yl)methyl)-9H-purin-8-yl)benzamide]
- IC50 [3]: 1000 nM

Structure (SMILES): CNC(=O)c1ccc(Cl)c(-c2nc3c(OC4(C)CC4)ncnc3n2Cc2cc(C)ccn2)c1 [Example T54, 4-chloro-N-methyl-3-(6-(1-methylcyclopropoxy)-9-((4-methylpyridin-2-yl)methyl)-9H-purin-8-yl)benzamide]
- IC50 [1]: > 10000 nM

Structure (SMILES): CC1(Oc2ncnc3c2nc(-c2ccc(OCC4(CC(=O)O)CC4)cc2Cl)n3Cc2ccccc2C#N)CC1 [Example U15, 2-(1-((3-chloro-4-(9-(2-cyanobenzyl)-6-(1-methylcyclopropoxy)-9H-purin-8-yl)phenoxy)methyl)cyclopropyl)acetic acid]
- IC50 [4]: 794 nM

Structure (SMILES): Cc1ccnc(Cn2c(-c3ccc(N4CCN5CCC[C@H]5C4)cc3Cl)nc3c(OC4(C)CC4)ncnc32)c1 [Example T585, (S)-8-(2-chloro-4-(hexahydropyrrolo[1,2-a]pyrazin-2(1H)-yl)phenyl)-6-(1-methylcyclopropoxy)-9-((4-methylpyridin-2-yl)methyl)-9H-purine]
- IC50 [5]: 200 nM

Structure (SMILES): Cc1cccc(Cn2c(-c3ccc(CC(N)=O)cc3Cl)nc3c(OC4(C)CC4)ncnc32)n1 [Example T59, 2-(3-chloro-4-(6-(1-methylcyclopropoxy)-9-((6-methylpyridin-2-yl)methyl)-9H-purin-8-yl)phenyl)acetamide]
- IC50 [1]: 2510 nM

Structure (SMILES): Cc1ccnc(Cn2c(-c3ccc(N4CC(O)C4)cc3Cl)nc3c(OC4(C)CC4)ncnc32)c1 [Example T115, 1-(3-chloro-4-(6-(1-methylcyclopropoxy)-9-((4-methylpyridin-2-yl)methyl)-9H-purin-8-yl)phenyl)azetidin-3-ol]
- IC50 [6]: 200 nM

Structure (SMILES): Cc1ccnc(Cn2c(-c3ccc(C(=O)N4CC[C@@H](CO)C4)cc3Cl)nc3c(OC4(C)CC4)ncnc32)c1 [Example T464, (R)-(3-chloro-4-(6-(1-methylcyclopropoxy)-9-((4-methylpyridin-2-yl)methyl)-9H-purin-8-yl)phenyl)(3-(hydroxymethyl)pyrrolidin-1-yl)methanone]
- IC50 [7]: 1580 nM

Structure (SMILES): Cc1ccnc(Cn2c(-c3ccc(C(=O)N4CC(O)C4)cc3Cl)nc3c(OC4(C)CC4)ncnc32)c1 [Example T180, (3-chloro-4-(6-(1-methylcyclopropoxy)-9-((4-methylpyridin-2-yl)methyl)-9H-purin-8-yl)phenyl)(3-hydroxyazetidin-1-yl)methanone]
- IC50 [6]: 1000 nM

Structure (SMILES): CC1(Oc2ncnc3c2nc(-c2ccc(OCCC(=O)O)cc2Cl)n3Cc2ccccc2Cl)CC1 [Example T88, 3-(3-chloro-4-(9-(2-chlorobenzyl)-6-(1-methylcyclopropoxy)-9H-purin-8-yl)phenoxy)propanoic acid]
- IC50 [1]: 794 nM

Structure (SMILES): CC(COc1cccc(-c2nc3c(OC4(C)CC4)ncnc3n2Cc2cc(Cl)ccc2F)c1Cl)CC(=O)O (single isomer, unassigned) [Example U33, 4-(2-chloro-3-(9-(5-chloro-2-fluorobenzyl)-6-(1-methylcyclopropoxy)-9H-purin-8-yl)phenoxy)-3-methylbutanoic acid]
- IC50 [4]: 15.8 nM

Structure (SMILES): Cc1ccnc(Cn2c(-c3ccc(OCC(=O)N4CC(F)C4)cc3Cl)nc3c(OC4(C)CC4)ncnc32)c1 [Example T283, 2-(3-chloro-4-(6-(1-methylcyclopropoxy)-9-((4-methylpyridin-2-yl)methyl)-9H-purin-8-yl)phenoxy)-1-(3-fluoroazetidin-1-yl)ethan-1-one]
- IC50 [3]: 158 nM

Structure (SMILES): CC(CCOc1ccc(-c2nc3c(OC4(C)CC4)ncnc3n2Cc2ccccc2C(F)F)c(Cl)c1)C(=O)O (single isomer, unassigned) [Example T414, 4-(3-chloro-4-(9-(2-(difluoromethyl)benzyl)-6-(1-methylcyclopropoxy)-9H-purin-8-yl)phenoxy)-2-methylbutanoic acid]
- IC50 [7]: 1580 nM

Structure (SMILES): CC1(Oc2ncnc3c2nc(-c2ccc(OCCC(C)(C)C(=O)O)cc2Cl)n3Cc2cc(Cl)ccc2F)CC1 [Example U46, 4-(3-chloro-4-(9-(5-chloro-2-fluorobenzyl)-6-(1-methylcyclopropoxy)-9H-purin-8-yl)phenoxy)-2,2-dimethylbutanoic acid]
- IC50 [4]: 31.6 nM

Structure (SMILES): Cc1ccnc(Cn2c(-c3ccc(OCC(=O)NCCCO)cc3Cl)nc3c(OC4(C)CC4)ncnc32)c1 [Example T373, 2-(3-chloro-4-(6-(1-methylcyclopropoxy)-9-((4-methylpyridin-2-yl)methyl)-9H-purin-8-yl)phenoxy)-N-(3-hydroxypropyl)acetamide]
- IC50 [2]: 316 nM

Structure (SMILES): Cc1ccnc(Cn2c(-c3ccc(OC[C@H]4CCO4)cc3Cl)nc3c(OC4(C)CC4)ncnc32)c1 [Example T194, (R)-8-(2-chloro-4-(oxetan-2-ylmethoxy)phenyl)-6-(1-methylcyclopropoxy)-9-((4-methylpyridin-2-yl)methyl)-9H-purine]
- IC50 [6]: 251 nM

Structure (SMILES): C[C@@H](OCCOc1ccc(-c2nc3c(OC4(C)CC4)ncnc3n2Cc2cccc(Cl)c2)c(Cl)c1)C(=O)O [Example T306, (R)-2-(2-(3-chloro-4-(9-(3-chlorobenzyl)-6-(1-methylcyclopropoxy)-9H-purin-8-yl)phenoxy)ethoxy)propanoic acid]
- IC50 [2]: 794 nM

Structure (SMILES): Cc1ncc(Cn2c(-c3ccc(CC(N)=O)cc3Cl)nc3c(OC4(C)CC4)ncnc32)s1 [Example T5, 2-(3-chloro-4-(6-(1-methylcyclopropoxy)-9-((2-methylthiazol-5-yl)methyl)-9H-purin-8-yl)phenyl)acetamide]
- IC50 [1]: > 7940 nM

Structure (SMILES): Cc1ccnc(Cn2c(-c3ccc(C(=O)N4CC(F)C4)cc3Cl)nc3c(OC4(C)CC4)ncnc32)c1 [Example T153, (3-chloro-4-(6-(1-methylcyclopropoxy)-9-((4-methylpyridin-2-yl)methyl)-9H-purin-8-yl)phenyl)(3-fluoroazetidin-1-yl)methanone]
- IC50 [6]: 501 nM

Structure (SMILES): CC[C@@H](O)CNC(=O)COc1ccc(-c2nc3c(OC4(C)CC4)ncnc3n2Cc2cc(C)ccn2)c(Cl)c1 [Example T520, (R)-2-(3-chloro-4-(6-(1-methylcyclopropoxy)-9-((4-methylpyridin-2-yl)methyl)-9H-purin-8-yl)phenoxy)-N-(2-hydroxybutyl)acetamide]
- IC50 [6]: 398 nM

Structure (SMILES): Cc1ccnc(Cn2c(-c3ccc(OCCNC(=O)[C@@H](C)O)cc3Cl)nc3c(OC4(C)CC4)ncnc32)c1 [Example T375, (R)-N-(2-(3-chloro-4-(6-(1-methylcyclopropoxy)-9-((4-methylpyridin-2-yl)methyl)-9H-purin-8-yl)phenoxy)ethyl)-2-hydroxypropanamide]
- IC50 [2]: 251 nM

Structure (SMILES): CC1(Oc2ncnc3c2nc(-c2ccc(OCCN4CCNCC4C(F)F)cc2Cl)n3Cc2ccccc2)CC1 (centres unmarked) [Example T567, 9-benzyl-8-(2-chloro-4-(2-(2-(difluoromethyl)piperazin-1-yl)ethoxy)phenyl)-6-(1-methylcyclopropoxy)-9H-purine]
- IC50 [6]: 158 nM

Structure (SMILES): Cc1ccnc(Cn2c(-c3ccc(OCC(=O)NC[C@H](C)O)cc3Cl)nc3c(OC4(C)CC4)ncnc32)c1 [Example T372, (S)-2-(3-chloro-4-(6-(1-methylcyclopropoxy)-9-((4-methylpyridin-2-yl)methyl)-9H-purin-8-yl)phenoxy)-N-(2-hydroxypropyl)acetamide]
- IC50 [2]: 398 nM

Structure (SMILES): CC1(Oc2ncnc3c2nc(-c2cccc(OCCC(C)(C)C(=O)O)c2Cl)n3Cc2cccc(Cl)c2)CC1 [Example T442, 4-(2-chloro-3-(9-(3-chlorobenzyl)-6-(1-methylcyclopropoxy)-9H-purin-8-yl)phenoxy)-2,2-dimethylbutanoic acid]
- IC50 [7]: 79.4 nM

Structure (SMILES): Cc1ccnc(Cn2c(-c3ccc(N4CCNCC4)cc3Cl)nc3c(OC4(C)CC4)ncnc32)c1 [Example T235, 8-(2-chloro-4-(piperazin-1-yl)phenyl)-6-(1-methylcyclopropoxy)-9-((4-methylpyridin-2-yl)methyl)-9H-purine]
- IC50 [3]: 398 nM

Structure (SMILES): CC(CCOc1ccc(-c2nc3c(OC4(C)CC4)ncnc3n2Cc2ccccc2C2CC2)c(Cl)c1)C(=O)O (single isomer, unassigned) [Example T599, 4-(3-chloro-4-(9-(2-cyclopropylbenzyl)-6-(1-methylcyclopropoxy)-9H-purin-8-yl)phenoxy)-2-methylbutanoic acid]
- IC50 [5]: 631 nM
